These results are taken from PubChem BioAssay (NCI).

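Assay format: 96-well plates, 48-hour exposure. TGI: concentration producing complete growth inhibition.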

Experiment in all cases: inhibition of tumour cell growth, NCI panel, 48 h
Assay [1] has as its system OVCAR-8 ovarian.
The test system of assay [2] is M14 melanoma.
In assay [3] the test system is NCI-H460 lung.
In assay [4] the test system is HT29 colon.
Assay [5] relates to RPMI-8226 leukemia.
The test system of assay [6] is SN12C renal.
Assay [7] has as its system NCI-H23 lung.
Assay [8] concerns TK-10 renal.
Assay [9] deals with OVCAR-4 ovarian.
Assay [10] deals with IGROV1 ovarian.
In assay [11] the test system is SF-295 CNS.
For assay [12], the system named is SNB-19 CNS.
Assay [13] deals with SNB-75 CNS.
The test system of assay [14] is PC-3 prostate.

As for `COCC(=O)OC1CCn2c1nc1c2C(=O)C(C)=C(NC(C)=O)C1=N` (stereo not given), the TGI in assay [1] is 7.19 µM; in [2], 15 µM; in assay [3] it was 31 µM; in assay [4], greater than 47.4 µM; in [5], 6.79 µM; in assay [6] it was 13.4 µM. The TGI in assay [7] is 23.8 µM; in assay [8], 32 µM; in assay [9], 4.89 µM; in [10], 24.2 µM; in assay [11], 30.4 µM; in [12], 38.1 µM. Also, the TGI in assay [13] was found to be 29 µM; in assay [14], 9.01 µM.

With `N#CC(C#N)=Cc1ccc(C=C2SC3=C(SCCS3)S2)s1`, the TGI in [1] is greater than 100 µM; in assay [2], greater than 100 µM; in [3], greater than 100 µM; in [4], greater than 100 µM; in assay [5] it was 6.28 µM; in assay [6] it was greater than 100 µM. In addition, the TGI is 95.3 µM in [7]; 68.6 µM in [8]; greater than 100 µM in assay [9]; greater than 100 µM in assay [10]; greater than 100 µM in [11]; greater than 100 µM in [12]. For the same compound, the TGI is 94 µM in assay [13] and greater than 100 µM in assay [14].

For the compound `CC(=O)OCC1OC(n2c3c(cc(C#N)c2=S)CCCCCC3)C(OC(C)=O)C(OC(C)=O)C1OC(C)=O` (stereo not given), the TGI in assay [1], in assay [2], in [3], in assay [4], in [5] and in assay [6] was greater than 100 µM in each case. Also, the TGI in [7], in assay [8], in [9], in [10], in assay [11] and in assay [12] was greater than 100 µM each time. The TGI in [13] and in assay [14] was greater than 100 µM in each case.

As to `CC(C)CCNC(=O)c1ccc(CNC(=O)/C=C/c2csc(-c3ccccc3)n2)cc1`, the TGI in assay [1] is 79.2 µM; in [2], greater than 100 µM; in [3], greater than 100 µM; in [4], greater than 100 µM; in [5], greater than 100 µM; in assay [6], greater than 100 µM. For the same compound, the TGI in assay [7] is greater than 100 µM; in [8] it was greater than 100 µM; in assay [9] it was greater than 100 µM; in assay [10] it was greater than 100 µM; in assay [11], greater than 100 µM; in assay [12], 56.6 µM. The TGI is 41.8 µM in [13] and greater than 100 µM in assay [14].

On to `CC(=O)N1C(C(=O)NNc2ccccc2)CSC1c1ccccc1` (stereo not given), for which the TGI in assay [1], in assay [2], in assay [3], in assay [4], in assay [5] and in assay [6] was greater than 100 µM each time. The TGI in assay [7], in assay [8], in assay [9], in assay [10], in [11] and in [12] was greater than 100 µM in each case. The TGI in [13] and in assay [14] was greater than 100 µM each time.

Take `Cc1cc(N(CCC#N)CCC#N)ccc1/C(N=Nc1ccccc1)=N\NC(=O)c1ccccc1`: the TGI in assay [1] was 90.7 µM; in [2], greater than 100 µM; in assay [3], 91 µM; in assay [4], 35.5 µM; in assay [5], greater than 100 µM; in assay [6] it was greater than 100 µM. In addition, the TGI in assay [7] was greater than 100 µM; in assay [8] it was 41 µM; in [9], greater than 100 µM; in [10], greater than 100 µM; in [11], greater than 100 µM; in assay [12], greater than 100 µM. For the same compound, the TGI in assay [13] and in [14] was greater than 100 µM in each case.

Regarding `CC(C)/C(Cl)=N\OC(=O)Nc1ccc(F)c([N+](=O)[O-])c1`, the TGI in [1] was 10.9 µM; in [2], greater than 32.4 µM; in assay [3], 7.89 µM; in assay [4], 35.3 µM; in [5], 4.87 µM; in assay [6] it was 16.5 µM. The TGI in [7] was 41.2 µM; in [8], 13.5 µM; in assay [9], 8.99 µM; in assay [10], 13.5 µM; in assay [11], 37.9 µM; in assay [12], 30.6 µM. Also, the TGI in assay [13] came out at 27.2 µM; in assay [14], 32.2 µM.

As for `O=C(O)CSc1nnc(CCCCCCCCc2nnc(SCC(=O)O)o2)o1`, the TGI in [1], in [2], in assay [3], in assay [4], in assay [5] and in [6] was greater than 100 µM throughout. In addition, the TGI in assay [7], in assay [8], in assay [9], in assay [10], in [11] and in assay [12] was greater than 100 µM throughout. In addition, the TGI in [13] was 73.1 µM; in assay [14], greater than 100 µM.

Regarding `O=C(Nc1ccccc1)Nn1c(-c2cccs2)nc2ccc(I)cc2c1=O`, the TGI was greater than 100 µM in assay [1]; greater than 100 µM in assay [2]; greater than 100 µM in assay [3]; 84.7 µM in assay [4]; 51.8 µM in [5]; greater than 100 µM in [6]. Moreover, the TGI is greater than 100 µM in [7]; 60.6 µM in assay [8]; 90.4 µM in assay [9]; 71.7 µM in assay [10]; 98.5 µM in assay [11]; greater than 100 µM in assay [12]. The TGI was 25.6 µM in assay [13] and greater than 100 µM in assay [14].

For `O=C(Nc1nncs1)NS(=O)(=O)n1cnc2ccccc21`, the TGI in assay [1], in assay [2], in [3], in assay [4], in assay [5] and in assay [6] was greater than 100 µM throughout. Besides, the TGI in [7], in assay [8], in [9], in assay [10], in assay [11] and in assay [12] was greater than 100 µM throughout. The TGI in [13] and in assay [14] was greater than 100 µM throughout.

In the case of `BrCCC[P+](c1ccccc1)(c1ccccc1)c1ccccc1`, the TGI in assay [1], in assay [2], in assay [3], in [4], in assay [5] and in assay [6] was greater than 100 µM throughout. Further, the TGI in assay [7] is greater than 64.7 µM; in [8], greater than 100 µM; in [9] it was greater than 100 µM; in [10] it was greater than 66.9 µM; in assay [11], greater than 100 µM; in [12], greater than 100 µM. Further, the TGI is 59.2 µM in [13] and greater than 100 µM in assay [14].

For the compound `COC1=CC(=O)c2c(O)ccc(O)c2C1=O`, the TGI in assay [1] is 55.5 µM; in assay [2], 1.89 µM; in assay [3], 12.9 µM; in assay [4], 4.41 µM; in assay [5], 38.2 µM; in [6], 7.55 µM. Also, the TGI in [7] is 9.32 µM; in assay [8] it was 28.3 µM; in [9], 27.2 µM; in assay [10], 37.5 µM; in assay [11], 4.35 µM; in [12], 18.8 µM. The figures for the TGI in assay [13] and in assay [14] were 3.65 µM and 41.4 µM, respectively.

For `COP(=O)(OC)C(O)/C=C(\Cl)c1ccc(Cl)cc1` (stereo not given), the TGI in assay [1] is 54.6 µM; in assay [2], greater than 100 µM; in assay [3], greater than 100 µM; in assay [4], greater than 100 µM; in assay [5], 63.4 µM; in assay [6], greater than 100 µM. Further, the TGI in [7] is 50.8 µM; in [8], greater than 100 µM; in assay [9], greater than 100 µM; in [10], greater than 100 µM; in [11], greater than 100 µM; in assay [12] it was greater than 100 µM. The TGI in assay [13] and in assay [14] was greater than 100 µM in each case.

Turning to `C=C(CN(C)C)C(=O)c1cc(C)ccc1C`, the TGI in assay [1] turned out to be 66.5 µM; in [2], 7.21 µM; in assay [3], 44.6 µM; in assay [4] it was 29.3 µM; in assay [5], 5.34 µM; in [6], 42.6 µM. Besides, the TGI in assay [7] came out at 33.4 µM; in assay [8], 20.4 µM; in assay [9], 39.4 µM; in assay [10], 34.7 µM; in assay [11], 34.1 µM; in [12], 39.2 µM. For the same compound, the results for the TGI in [13] and in assay [14] were 43.4 µM and 28.2 µM, respectively.

As for `COc1cc(C=Nc2ccc(S(N)(=O)=O)cc2)cc(OC)c1`, the TGI in assay [1], in assay [2], in assay [3], in [4], in assay [5] and in assay [6] was greater than 50 µM throughout. Moreover, the TGI in assay [7], in assay [8], in assay [9], in assay [10], in assay [11] and in assay [12] was greater than 50 µM in each case. Besides, the TGI in assay [13] and in [14] was greater than 50 µM in each case.
